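Exposure lasted 48 hours, with cells grown in 96-well plates and compounds tested at five concentrations. At the GI50, growth is halved.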 Activity calls are given as the source filed them. Rule as the data show it: active = GI50 up to about 1.1 µM and inactive = higher.
How the values were obtained:
Assay in all cases: DTP human tumour cell line panel, 48 h
786-0 = test system: 786-0
A498 = test system: A498
A549 = test system: A549
ACHN = test system: ACHN
BT-549 = test system: BT-549
CAKI-1 = test system: CAKI-1
CCRF-CEM = test system: CCRF-CEM
COLO 205 = test system: COLO 205
DU-145 = test system: DU-145
EKVX = test system: EKVX
HCC 2998 = test system: HCC 2998
HCT-116 = test system: HCT-116
HCT-15 = test system: HCT-15
HL-60 = test system: HL-60
HOP-62 = test system: HOP-62
HT-29 = test system: HT-29
Hs-578T = test system: Hs-578T
IGROV-1 = test system: IGROV-1
K562 = test system: K562
KM12 = test system: KM12
LOX IMVI = test system: LOX IMVI
M14 = test system: M14
MCF7 = test system: MCF7
MDA-MB-231 = test system: MDA-MB-231
MDA-MB-435 = test system: MDA-MB-435
MDA-N = test system: MDA-N
MOLT-4 = test system: MOLT-4
Malme-3M = test system: Malme-3M
NCI-H23 = test system: NCI-H23
NCI-H460 = test system: NCI-H460
NCI-H522 = test system: NCI-H522
NCI/ADR-RES = test system: NCI/ADR-RES
OVCAR-3 = test system: OVCAR-3
OVCAR-4 = test system: OVCAR-4
OVCAR-5 = test system: OVCAR-5
OVCAR-8 = test system: OVCAR-8
PC-3 = test system: PC-3
RPMI-8226 = test system: RPMI-8226
RXF 393 = test system: RXF 393
SF-268 = test system: SF-268
SF-295 = test system: SF-295
SF-539 = test system: SF-539
SK-MEL-28 = test system: SK-MEL-28
SK-MEL-2 = test system: SK-MEL-2
SK-MEL-5 = test system: SK-MEL-5
SK-OV-3 = test system: SK-OV-3
SN12C = test system: SN12C
SNB-19 = test system: SNB-19
SR = test system: SR
SW-620 = test system: SW-620
T47D = test system: T47D
TK-10 = test system: TK-10
U-251 = test system: U-251
UACC-257 = test system: UACC-257
UACC-62 = test system: UACC-62
UO-31 = test system: UO-31
NCI-H226 = test system: NCI-H226
SNB-75 = test system: SNB-75

How did the GI50 (786-0) turn out when CC(=O)c1c(C)[n+]([O-])c2cc(Cl)c(Cl)cc2[n+]1[O-] was run?
Its GI50 is 27.5 µM (inactive).

What about the GI50 (A498) of the same compound?
The GI50 was 23.7 µM (inactive).

What about the GI50 (A549) of the same compound?
The GI50 was 19.2 µM (inactive).

What about the GI50 (ACHN) of the same compound?
Its GI50 is 17.8 µM (inactive).

What about the GI50 (BT-549) of the same compound?
The GI50 was 15.6 µM (inactive).

What about the GI50 (CAKI-1) of the same compound?
The GI50 was 18.7 µM (inactive).

What about the GI50 (CCRF-CEM) of the same compound?
Its GI50 is 13.7 µM (inactive).

What about the GI50 (COLO 205) of the same compound?
The GI50 was 15.7 µM (inactive).

And the GI50 (DU-145)?
Its GI50 is 23.1 µM (inactive).

And the GI50 (EKVX)?
Its GI50 is 28.6 µM (inactive).

What about the GI50 (HCC 2998) of the same compound?
The GI50 was 21.6 µM (inactive).

What about the GI50 (HCT-116) of the same compound?
Its GI50 is 15.6 µM (inactive).

What about the GI50 (HCT-15) of the same compound?
Its GI50 is 12.2 µM.

What about the GI50 (HL-60) of the same compound?
Its GI50 is 10.4 µM (inactive).

And the GI50 (HOP-62)?
The GI50 was 23.1 µM (inactive).

What about the GI50 (HT-29) of the same compound?
The GI50 was 18.5 µM (inactive).

And the GI50 (Hs-578T)?
Its GI50 is 20.7 µM (inactive).

And the GI50 (IGROV-1)?
The GI50 was 4.98 µM (inactive).

And the GI50 (K562)?
Its GI50 is 19.4 µM (inactive).

What about the GI50 (KM12) of the same compound?
Its GI50 is 10.3 µM (inactive).

And the GI50 (LOX IMVI)?
The GI50 was 16.8 µM (inactive).

What about the GI50 (M14) of the same compound?
The GI50 was 24.6 µM (inactive).

What about the GI50 (MCF7) of the same compound?
Its GI50 is 14.8 µM (inactive).

And the GI50 (MDA-MB-231)?
The GI50 was 22.1 µM (inactive).

And the GI50 (MDA-MB-435)?
The GI50 was 21.3 µM (inactive).

What about the GI50 (MDA-N) of the same compound?
Its GI50 is 22.6 µM (inactive).

And the GI50 (MOLT-4)?
Its GI50 is 8.22 µM (inactive).

What about the GI50 (Malme-3M) of the same compound?
The GI50 was 6.58 µM (inactive).

And the GI50 (NCI-H23)?
The GI50 was 26.4 µM (inactive).

And the GI50 (NCI-H460)?
Its GI50 is 12 µM (inactive).

What about the GI50 (NCI-H522) of the same compound?
The GI50 was 12.6 µM (inactive).

What about the GI50 (NCI/ADR-RES) of the same compound?
Its GI50 is 16.7 µM (inactive).

What about the GI50 (OVCAR-3) of the same compound?
Its GI50 is 19.9 µM (inactive).

What about the GI50 (OVCAR-4) of the same compound?
The GI50 was 15.6 µM (inactive).

What about the GI50 (OVCAR-5) of the same compound?
The GI50 was 38.3 µM (inactive).

And the GI50 (OVCAR-8)?
Its GI50 is 14.2 µM (inactive).

And the GI50 (PC-3)?
The GI50 was 17.7 µM (inactive).

And the GI50 (RPMI-8226)?
Its GI50 is 5.5 µM (inactive).

And the GI50 (RXF 393)?
The GI50 was > 100 µM (inactive).

And the GI50 (SF-268)?
Its GI50 is 28.3 µM (inactive).

What about the GI50 (SF-295) of the same compound?
The GI50 was 26.5 µM (inactive).

And the GI50 (SF-539)?
Its GI50 is 24.7 µM (inactive).

What about the GI50 (SK-MEL-28) of the same compound?
The GI50 was 29.8 µM (inactive).

What about the GI50 (SK-MEL-2) of the same compound?
The GI50 was 27.6 µM (inactive).

And the GI50 (SK-MEL-5)?
The GI50 was 11.6 µM (inactive).

And the GI50 (SK-OV-3)?
The GI50 was 19.4 µM (inactive).

What about the GI50 (SN12C) of the same compound?
Its GI50 is 20.2 µM (inactive).

And the GI50 (SNB-19)?
Its GI50 is 30.8 µM (inactive).

What about the GI50 (SR) of the same compound?
Its GI50 is 6.75 µM (inactive).

What about the GI50 (SW-620) of the same compound?
The GI50 was 17.7 µM (inactive).

What about the GI50 (T47D) of the same compound?
Its GI50 is 12.7 µM (inactive).

What about the GI50 (TK-10) of the same compound?
The GI50 was 16.9 µM (inactive).

What about the GI50 (U-251) of the same compound?
Its GI50 is 21.8 µM (inactive).

And the GI50 (UACC-257)?
Its GI50 is 17.6 µM (inactive).

What about the GI50 (UACC-62) of the same compound?
Its GI50 is 18.4 µM (inactive).

And the GI50 (UO-31)?
The GI50 was 14.9 µM (inactive).

With CC(C)c1ccc2c(c1)/C(=C1/Nc3ccccc3/C1=N/O)C(=O)N2 as the compound, how does the GI50 (786-0) read?
Its GI50 is 4.85 µM (inactive).

And the GI50 (A498)?
The GI50 was 2.78 µM (inactive).

And the GI50 (A549)?
The GI50 was 6.28 µM (inactive).

And the GI50 (ACHN)?
Its GI50 is 3.33 µM (inactive).

And the GI50 (BT-549)?
Its GI50 is 7.13 µM (inactive).

What about the GI50 (CAKI-1) of the same compound?
Its GI50 is 4.29 µM (inactive).

What about the GI50 (CCRF-CEM) of the same compound?
The GI50 was 3.14 µM (inactive).

And the GI50 (COLO 205)?
The GI50 was 5.22 µM (inactive).

What about the GI50 (DU-145) of the same compound?
The GI50 was 6.07 µM (inactive).

What about the GI50 (EKVX) of the same compound?
Its GI50 is 4.51 µM (inactive).

What about the GI50 (HCC 2998) of the same compound?
Its GI50 is 4.75 µM (inactive).

And the GI50 (HCT-116)?
Its GI50 is 3.76 µM (inactive).

And the GI50 (HCT-15)?
Its GI50 is 3.98 µM.

And the GI50 (HOP-62)?
Its GI50 is 10.7 µM (inactive).

And the GI50 (HT-29)?
Its GI50 is 4.69 µM (inactive).

And the GI50 (Hs-578T)?
The GI50 was 4.76 µM (inactive).

What about the GI50 (IGROV-1) of the same compound?
The GI50 was 8.73 µM (inactive).

What about the GI50 (K562) of the same compound?
The GI50 was 4.07 µM (inactive).

What about the GI50 (KM12) of the same compound?
Its GI50 is 0.0431 µM (active).

And the GI50 (LOX IMVI)?
Its GI50 is 5.07 µM (inactive).

What about the GI50 (M14) of the same compound?
The GI50 was 11.5 µM (inactive).

What about the GI50 (MCF7) of the same compound?
The GI50 was 1.69 µM (inactive).

And the GI50 (MDA-MB-231)?
Its GI50 is 15.3 µM (inactive).

And the GI50 (MDA-MB-435)?
The GI50 was 7.38 µM (inactive).

And the GI50 (MDA-N)?
The GI50 was 6.73 µM (inactive).

What about the GI50 (MOLT-4) of the same compound?
Its GI50 is 3.3 µM (inactive).

What about the GI50 (Malme-3M) of the same compound?
The GI50 was 3.72 µM (inactive).

What about the GI50 (NCI-H226) of the same compound?
Its GI50 is 10.8 µM (inactive).

What about the GI50 (NCI-H23) of the same compound?
Its GI50 is 3.93 µM (inactive).

And the GI50 (NCI-H460)?
The GI50 was 4 µM (inactive).

And the GI50 (NCI-H522)?
Its GI50 is 4.06 µM (inactive).

What about the GI50 (NCI/ADR-RES) of the same compound?
The GI50 was 4.38 µM (inactive).

And the GI50 (OVCAR-3)?
The GI50 was 7.46 µM (inactive).

What about the GI50 (OVCAR-4) of the same compound?
Its GI50 is 4.32 µM (inactive).

What about the GI50 (OVCAR-5) of the same compound?
Its GI50 is 16.1 µM (inactive).

And the GI50 (OVCAR-8)?
The GI50 was 2.79 µM (inactive).

And the GI50 (PC-3)?
Its GI50 is 6.64 µM (inactive).

And the GI50 (RPMI-8226)?
The GI50 was 4.17 µM (inactive).

What about the GI50 (RXF 393) of the same compound?
The GI50 was 2.07 µM (inactive).

What about the GI50 (SF-268) of the same compound?
The GI50 was 7 µM (inactive).

And the GI50 (SF-295)?
Its GI50 is 2.13 µM (inactive).

What about the GI50 (SK-MEL-28) of the same compound?
Its GI50 is 13.5 µM (inactive).

What about the GI50 (SK-MEL-2) of the same compound?
The GI50 was 3.9 µM (inactive).

What about the GI50 (SK-MEL-5) of the same compound?
Its GI50 is 3.82 µM (inactive).

What about the GI50 (SK-OV-3) of the same compound?
Its GI50 is 6.55 µM (inactive).

And the GI50 (SN12C)?
The GI50 was 5.22 µM (inactive).

What about the GI50 (SNB-19) of the same compound?
The GI50 was 16.4 µM (inactive).

What about the GI50 (SNB-75) of the same compound?
The GI50 was 12.7 µM (inactive).

And the GI50 (SR)?
Its GI50 is 2.61 µM (inactive).

What about the GI50 (SW-620) of the same compound?
The GI50 was 5.11 µM (inactive).

What about the GI50 (T47D) of the same compound?
Its GI50 is 3.88 µM (inactive).

And the GI50 (TK-10)?
Its GI50 is 9.4 µM (inactive).

What about the GI50 (U-251) of the same compound?
Its GI50 is 7.23 µM (inactive).

What about the GI50 (UACC-257) of the same compound?
Its GI50 is 12.1 µM (inactive).

What about the GI50 (UACC-62) of the same compound?
The GI50 was 8.57 µM (inactive).

What about the GI50 (UO-31) of the same compound?
The GI50 was 3.69 µM (inactive).

Source: ChEMBL document CHEMBL1201862, “PubChem BioAssay data set” (2004)
